The source of these data is article PMC5980995, “An allostatic mechanism for M2 pyruvate kinase as an amino-acid sensor” (Biochemical Journal, 2018).

Experiment [1] has as its target T1, M2PYK (Homo sapiens, UniProt P14618).
T1 construct: and N-terminal domain (blue, residues 13–43. Residues 1–12, as well as additional residues from the His6-tagged construct); made in house; host or cells: Escherichia coli BL21(DE3), pET28a
In words: M2PYK activity at sub-saturating PEP and ADP: amino-acid IC50/Ki and serine versus alanine/phenylalanine competition. It is filed as biochemical. The protocol: For the determination of kinetics of M2PYK in the absence/presence of amino acid modulators, enzymatic activity assays were performed as follows. A 5 µl aliquot of 0.002 mg/ml M2PYK in PBS-CM was incubated with different concentrations of amino acids in PBS-CM supplemented with 1 mM dithiothreitol at 37°C at pH 7.4 for 10 min. […] For these uncompetitive inhibitors the Ki values were calculated to be equal to IC50/2.
The decrease in absorbance at 340 nm was measured for 5 min at 37°C using a plate reader. […]

Experiment [2] addresses T1, M2PYK. In words: Analytical gel chromatography of M2PYK oligomerisation/dissociation. The following applies: 10 mM amino acid; 0.1 mg/ml M2PYK; PBS-CM pH 7.4, room temperature, 12 h. The protocol: Analytical gel chromatography was performed to characterise the oligomerisation/dissociation of M2PYK in the presence/absence of different amino acids. Aliquots of 400 µl of 0.1 mg/ml purified M2PYK were incubated with or without 10 mM amino acids in PBS-CM at room temperature at pH 7.4 overnight. After the incubation, samples were loaded independently onto a Superdex 200 PC 3.2/30 gel-filtration column. Samples of 25 µl were injected, and the column flow rate was maintained at 0.1 ml/min. Protein peaks were monitored using the absorbance at both 280 and 214 nm. The retention volumes for the M2PYK peaks were the same as those identified by SEC-MALS as monomer and tetramer peaks (using the same Superdex 200 column) in our previous study.
Analytical gel chromatography was used to investigate the effects of amino acids on the oligomerisation of M2PYK. […] Dissociation studies of M2PYK using SEC-MALS [13] and ultracentrifugation show the predominant forms in solution are tetramer and monomer.

Experiment [3] has as its target T1, M2PYK. As to the kind of experiment: ELISA with anti-M2PYK antibody binding the C–C interface (monomer–tetramer equilibrium). The following applies: 10 mM amino acid; 0.0039–2.5 µg/ml M2PYK; 1 h, pH 7.4, room temperature. The text has this: For the production of specific antibodies, a peptide immunogen (Supplementary Figure S1) specific for M2PYK was covalently conjugated with the carrier protein BSA, and injected into Balb/c female mice (6–7 weeks) at 2-week intervals. A mouse showing best selectivity for M2PYK was chosen as a spleen donor. After the production of a hybridoma, a cell line secreting a specific monoclonal antibody was screened and expanded. The specific monoclonal antibody against M2PYK was identified, purified and conjugated with horseradish peroxidase (HRP) for further ELISAs.
A stock solution of anti-His-tag antibody in carbonate buffer (pH 9.6) was coated onto wells at 50 µl/well at 4°C overnight. The wells were then blocked with 100 µl/well of PBS/Tween 20/3% BSA for 1 h at room temperature. Titrated M2PYK (2.5–0.0039 µg/ml) was incubated with or without ligands (10 mM for all amino acids and 1 mM for FBP) in PBS/Tween 20/3% BSA at room temperature for 1 h. Then, 100 µl of the solution was added to each prepared well for an incubation of 1 h. Afterwards, a 100 µl aliquot of PBS/Tween 20/3% BSA containing 4 µg/ml HRP-conjugated M2PYK antibody was added to each well and incubated for 1 h at room temperature. Electrochemiluminescence solution was added at 50 µl/well to develop the luminescence, which was read immediately with a plate reader. Three washes with PBS/Tween 20/3% BSA were performed between each step.
To investigate the effect of ligand binding on monomer–tetramer equilibrium at lower protein concentrations, we developed an ELISA assay. […] As the epitope is hidden in the tetrameric form of M2PYK, antibody binding on the C–C interface of M2PYK reflects the amount of monomer/dimer but not tetramer. The ELISA tests were performed using low concentrations of His6-M1/2PYK (0.0039–2.5 µg/ml) incubated with no ligand or 10 mM of each amino acid for 1 h in PBS-CM at pH 7.4 at room temperature. The incubated solutions were added to 96-well plates precoated with anti-His-tag antibodies. HRP-conjugated M2PYK antibodies were then incubated, followed by luminescence reading.

The target in experiment [4] is T1, M2PYK. In words: X-ray co-crystal structures of M2PYK with amino acids. The following applies: wild-type M2PYK co-crystallised with the amino acid. The protocol:
Single crystals of M2PYK were obtained at 17°C by vapour diffusion using the hanging-drop technique. The drops were formed by mixing 1.5 µl of wild-type M2PYK (20 mg/ml) solution containing ligands with 1.5 µl of reservoir solution (composed of 11–16% PEG 3350, 100 mM sodium cacodylate, 50 mM MgCl2, and 100 mM KCl). […] The pH for obtaining optimal crystals was 7.2–7.8. Before data collection, crystals were dipped in a freezing solution consisting of reservoir solution supplemented with the same concentration of ligands as in the original solution, as well as up to 35% PEG 3350, which eliminated the appearance of ice rings. Diffraction data were collected at the Diamond synchrotron radiation facility in Oxfordshire, U.K. on beamline I03 (for the M2PYK/Ala structure), I04-1 (for the M2PYK/Phe and the M2PYK/Trp structures), and I24 (for the M2PYK/Ser structure). All datasets were obtained from a single crystal flash-frozen in liquid nitrogen. A more detailed description and discussion of the crystallisation trials is in the Supplementary Material.
All four M2PYK structures were solved by molecular replacement using the program PHASER [40]. A monomer (Chain A) from the previously determined tetrameric structure of M2PYK (in R-state, PDB ID: 4B2D) served as the search model for the M2PYK/Ser structure. Chain A of a different M2PYK structure (in T-state, PDB ID: 4FXJ) was used as the search model for the M2PYK/Phe, M2PYK/Ala, and M2PYK/Trp structures. There were clear molecular replacement solutions for all structures. The resulting models were then subjected to 10 cycles of rigid body refinement using the program REFMAC [41]. Afterwards, manual changes were made to models to adjust side chain conformations and to add additional residues to the N terminus using COOT [42]. The models were then subjected to several rounds of translation libration screw refinement and restrained refinement, and ligand molecules were added where clear unbiased Fo–Fc electron density was observed. Water molecules were added to the model using COOT, and after several rounds of restrained refinement, R/Rfree values converged.

Another experiment relates to M1PYK. Set-up: method as in PMID 5166752, PMID 16634623. The following applies: cited from earlier work.

T1 sequence (P14618 whole entry, the tested form may be a part): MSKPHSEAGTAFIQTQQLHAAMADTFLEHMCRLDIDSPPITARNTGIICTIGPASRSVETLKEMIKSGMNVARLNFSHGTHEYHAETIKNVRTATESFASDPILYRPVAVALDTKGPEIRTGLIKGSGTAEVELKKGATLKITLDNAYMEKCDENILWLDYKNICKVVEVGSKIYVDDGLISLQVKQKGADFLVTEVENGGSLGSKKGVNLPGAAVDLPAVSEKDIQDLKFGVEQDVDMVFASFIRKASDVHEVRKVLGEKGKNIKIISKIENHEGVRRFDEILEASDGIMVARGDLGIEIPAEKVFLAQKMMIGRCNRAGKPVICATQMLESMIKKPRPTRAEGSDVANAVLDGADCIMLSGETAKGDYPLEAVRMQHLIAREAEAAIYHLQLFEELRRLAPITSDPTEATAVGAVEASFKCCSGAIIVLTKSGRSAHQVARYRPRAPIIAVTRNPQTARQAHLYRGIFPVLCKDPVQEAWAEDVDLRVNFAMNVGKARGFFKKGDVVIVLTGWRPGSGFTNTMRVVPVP

With `N[C@@H](Cc1ccccc1)C(=O)O` [phenylalanine, L-phenylalanine], the Ki at M2PYK [1] (calculated as IC50/2 (uncompetitive inhibitors), read-out: inhibitor constant (Ki) against M2PYK) was 205 µM. In addition, the M2PYK activity at M2PYK [1] (phenylalanine at ∼0.2 mM, no serine) is approximately 65%; on M2PYK [1] (phenylalanine ∼0.2 mM in the presence of 0.6 mM serine), “nearly full activity”. Besides, the IC50 on M2PYK [1] (sub-saturating PEP and ADP, 0 µM serine, read-out: IC50 against M2PYK) was 410 µM. The “effect on M2PYK oligomerisation (tetramer versus monomer)” value on M2PYK [2] is listed as “stabilised tetramers over monomers”. Further, the “oligomeric state of M2PYK at low protein concentration” value on M2PYK [3] is on record as “predominantly tetrameric”. In addition, the “Conformation of M2PYK tetramer in co-crystal structure” value on M2PYK [4] is listed as “T-state”. Besides, the “regulatory effect on M1PYK enzymatic activity” value with M1PYK is listed as “non-competitive inhibition”.
